Assay results taken from patent publication US7812142B2, “Pentose derivatives as anti-hyperglycemic drugs” (Yissum Research Development Company of the Hebrew …, priority 2002, dated 2010).

Columns and labels:
Type in all cases: cell-based
[1] = tested on: L8 myocytes; assay: [3H]-2-deoxy-D-glucose (dGlc) uptake assay in L8 myocytes
Method: The time-course of D-xylose effect in two types of skeletal muscle cells (L8 myocytes and C2 myotubes) was studied. L8 myocytes and C2 myotubes preconditioned in 20 mM glucose were incubated with 20 mM xylose. After 90 min the cells were washed and incubated with 20 mM glucose, and subjected to a deoxyglucose dGlc uptake assay (14).
It has shown before by the inventors of the present invention that deoxyglucose (dGlc) depresses the hexose transport system in myocytes and that a subsequent incubation with low (even no) glucose fails to reverse this effect of dGlc [Sasson, S et al (1997)]. The inventors have therefore measured the effect of D-xylose on rate of hexose transport following treatment with dGlc. In one experiment, C2 myotubes preconditioned with 2 mM glucose received fresh medium containing 2 mM dGlc. A portion of the cells were washed after 30 min and received 20 MM D-xylose or 2 mM D-glucose, and subjected to a dGlc uptake assay at different time points. In another experiment, L8 myocytes preconditioned with 2 mM glucose were washed and incubated with 2 mM xylose or 2 mM dGlc. A portion of the cells were washed again after 2 hr and incubated with 20 mM xylose, and subjected to a dGlc uptake assay at different time points.
This conclusion is also supported by the finding of the a better ability of D-xylose than the other pentoses to reverse 2-deoxy-D-glucose-induced downregulation of the hexose transport system in L8 myocytes. L8 myocytes were preconditioned with 2 mM glucose, washed and incubated with 2 mM dGlc. After 30 min a portion of the cells were washed again and incubated with 20 mM xylose, ribose, arabinose or lyxose. Cells were subjected to the dGlc uptake assay at various time points.
(§1) Uptake assay of the tritiated glucose analogue, 2-deoxy-D-glucose, is routinely performed as described in [Sasson, S. and Cerasi, E. (1986) J. Biol. Chem. 261, 16827-16833].

[2] = tested on: 3T3-L1 adipocytes; assay: Screening of methylated xylose derivatives, dGlc uptake assay (Table 1); conditions: Mean±SEM (n=3-6)
From the text: There are five carbon atoms in xylose available for chemical modifications. Each of these atoms was methylated by modifications of published chemical procedures [Bollenback, G. N. (1963) In Methods in carbohydrate chemistry, vol. 2 (Whistler, R. L. and Wolfrom, M. L., eds.), pp. 326-331, Academic Press, New York; Bowering, W. and Timel, T. (1958) Can. J. Chem. 36, 283-285; Levine, P. and Raymomd, A. (1933) J. Biol. Chem. 102, 331-344; Takeo, K. (1992) Carbohyd. Res. 224, 311-318]. All compounds were purified by HPLC and their structure verified by NMR spectroscopy. […] At the end of the incubation period the cells were taken for a standard [^3H]-2-deoxy-D-glucose uptake assay in the absence or the presence of 500 nM insulin (30 min exposure prior to the uptake assay).
3T3-L1 adipocytes and L6 myotubes were maintained for 24 hr at 20 mM glucose. Test compounds were added (0.1-20.0 mM) and the cells were incubated further for 2-45 hr. At the end of the incubation periods the cells were washed and taken for a standard [^3H]2-deoxy-D-glucose (dGlc) uptake assay. Uptake values (given for control cells) are in nmol dGlc/mg protein/min. Mean±SEM (n=3-6).
as §1

[3] = tested on: glucose uptake in cultured cells; assay: In vitro glucose uptake / hexose transport in cultured cells with xylose derivatives (Table 2)
[4] = tested on: glucose transporter; assay: Non-radioactive fluorimetric dGlc-6-P uptake assay with 10 mM dGlc; conditions: 10 mM dGlc in the uptake assay
Method: Since the standard hexose transport assay utilizes 0.1 mM dGlc in the presence of tracer amount of [^3H] dGlc, the inventors asked whether the results shown above were limited to this particular assay condition. Therefore, experiments were repeated with 10 mM dGlc in the uptake assay. […] The uptake of hexose under these assay conditions was also linear up to 25 min.

- EC50 ([3]; EC = Effective concentration): 12 mM
Structure (SMILES): O=C[C@H](O)[C@@H](O)[C@H](O)CO [D-xylose]
- reversal of 2-deoxy-D-glucose-induced downregulation of the hexose transport system ([1]; 20 mM pentose after 30 min 2 mM dGlc (FIG. 8)): better than any of the other pentoses
- rate of hexose transport downregulated by dGlc ([1]; 20 mM xylose after 2 hr 2 mM dGlc (FIG. 4B)): increased the rate of hexose transport
- rate of glucose transport ([1]; 20 mM xylose, cells preconditioned in 20 mM glucose (FIG. 1)): increases the rate of glucose transport
- HEXOSE UPTAKE (Percent of Control) Without Insulin ([2]; 3T3-L1 adipocytes 24 hr at 20 mM glucose, test compounds 0.1-20.0 mM, 2-45 hr): 189 ± 4% of Control
- HEXOSE UPTAKE (Percent of Control) With Insulin ([2]; as E1, 500 nM insulin 30 min prior to uptake assay): 158 ± 9% of Control
- Fold Increase of Glucose Uptake [3]: ~2.0 fold
- ECmax ([3]; EC = Effective concentration): 20 mM
- time to loss of activity after being removed ([3]; after being washed from cell cultures): 10 to 20 min
- competition for transport at high hexose level [4]: does not compete for transport via the glucose transporter
